Reference: US20140206629A1, “Stromal Derived Factor Inhibition And CXCR4 Blockade” (RHODE ISLAND HOSPITAL, priority 2011, published 2014)
Entries after “also recorded” stand apart in the source; their conditions may differ.

What was measured:
[1] = system: IL-1β induced SDF-1 expression in human subacromial bursal cells; test: SDF-1α protein (ELISA) in supernatants of IL-1β-treated cultured bursal cells with inhibitors; assay type: cell-based; settings: bursal cells treated with IL-1β 20 ng/mL plus inhibitor
Experimental: (§1) Human subacromial bursal biopsy specimens were obtained as above. Tissues were washed with Hank's balanced salt solution (Gibco), minced with scissors, and resuspended in Dulbecco's minimum essential medium (DMEM, Gibco) containing 1 mg/ml collagenase, 0.15 mg/ml DNase, and 0.15 mg/ml hyaluronidase. The tissue was enzymatically digested for 2 hours at 37° C. and then passed through sterile gauze to remove any undigested fragments. Cells were seeded in 75 cm2 flasks with DMEM supplemented with 10% fetal bovine serum (FBS), 100 U/ml penicillin, 100 μg/ml streptomycin, and 0.1% fungizone (amphotericin B) and grown at 37° C. in a humidified atmosphere of 5% CO2 and 95% air. Subcultures were performed with Trypsin-EDTA treatment (Gibco).
Subacromial bursal cells were cultured as above. After the first passage, cells were plated into 6-well plates and grown to 85% confluence. Wells were then treated (in triplicate) with IL-1β 20 ng/mL and respective inhibitors (AMD3100, T140 analog, dexamethasone or NSAID). After 24 hours, supernatants were collected and assayed for SDF-1α expression using Quantikineâ Human SDF-1α enzyme immunoassay kit (R & D System) according to the manufacturer's instructions. Standard curves were reconstituted using SDF-1α protein. The optical density of each well was determined using a microplate reader set to 450 nm wavelength. […]

[2] = system: human subacromial bursal cells; test: Cell migration assay of bursal cells in response to SDF-1 stimulation; assay type: cell-based; settings: in the presence of CXCR4 inhibitor
From the text: FIG. 6 is a bar graph showing cell migration assay of human subacromial bursal cells in the presence of CXCR4 inhibitors AMD3100 and T140.

[3] = system: IL-1β induced SDF-1 mRNA expression in human subacromial bursal cells; test: SDF-1α mRNA (RT-PCR) in IL-1β-treated cultured bursal cells with inhibitors; assay type: cell-based; settings: bursal cells treated with IL-1β plus inhibitor
Experimental: Subacromial bursal cells were cultured as above. First-passaged cells were treated with IL-1β and respective inhibitors as above. Total RNA was isolated using Qiagen RNeasy Mini Kit (Qiagen, Valencia, Calif.). First-strand cDNA was synthesized using 1 μg of total RNA and Superscript III™ First-Strand Synthesis System (Invitrogen). […] All PCR were performed in 25-μl reactions on a DNA Engine Opticon™ 2 Detection System (MJ Research, Hercules, Calif.) for 40 cycles in which each cycles consisted of 15 sec at 95° C., 15 sec at 60° C., and 20 sec at 72° C. Results were standardized to GAPDH housekeeping gene. Statistical analysis was performed using the student's t-test. […]

[4] = system: rat rotator cuff tendons
From the text: 58 male Lewis rat shoulders underwent surgery using an IACUC approved protocol. The infraspinatus tendon was transected at its insertion to create a tendon defect (FIG. 7). […] Animals were sacrificed at 3, 7, 14, 28 or 42 days. Eight uninjured rat shoulders were used as controls. Preconditioned for 5 cycles to 0.38 mm displacement in tension at a rate of 0.1 mm/s Stress relaxation test for 300 s duration at 0.38 displacement in tension Return to 0.2 N tension followed by a 300 s latency period Tension to failure at a displacement rate of 0.1 mm/s

[5] = biological target: CCR5 (Homo sapiens, UniProt P51681); settings: cited from earlier work
CCR5, sequence (P51681 whole entry): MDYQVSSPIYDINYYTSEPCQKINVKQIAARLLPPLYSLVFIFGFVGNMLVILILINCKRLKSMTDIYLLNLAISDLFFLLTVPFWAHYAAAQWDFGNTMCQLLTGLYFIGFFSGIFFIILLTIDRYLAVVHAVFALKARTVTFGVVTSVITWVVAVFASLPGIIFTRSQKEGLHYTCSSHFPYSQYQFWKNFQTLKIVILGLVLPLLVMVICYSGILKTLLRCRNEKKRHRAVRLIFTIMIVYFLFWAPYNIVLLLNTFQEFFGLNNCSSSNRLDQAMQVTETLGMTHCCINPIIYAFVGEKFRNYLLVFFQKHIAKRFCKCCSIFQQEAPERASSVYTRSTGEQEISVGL

[6] = system: human subacromial bursal cells; test: Cytokine stimulation of SDF-1α protein production in cultured bursal cells (ELISA); assay type: cell-based
Experimental: as §1
SDF-1 expression was induced by stimulating bursal cells with IL-1β. SDF-1 levels were measured in cell supernatants and mRNA levels were tested using real-time RT-PCR at various time points. SDF-1 expression increased with time and occurred in a dose-dependent fashion. […] (FIG. 3) These experiments were reproducible with cells grown from several different tissue samples.
(§2) Subacromial bursa specimens were obtained from patients undergoing shoulder surgery. […] Early-passaged cells were then treated with cytokines ([…] and IL-6) and SDF-1α expression was measured by ELISA and RT-PCR.

[7] = system: human subacromial bursal cells; test: Cytokine stimulation of SDF-1α mRNA expression in cultured bursal cells (RT-PCR); assay type: cell-based; settings: cytokine-treated bursal cells vs controls; maximal at 24 hours
Experimental: as §1
Subacromial bursal cells were cultured as above. […] SDF-1 mRNA was quantified with SDF-1 specific primers SDF-1FOR (5′-GATTGTAGCCCGGCT GAAGAA-3′) (SEQ ID NO: 11) and SDF-1BACK (5′-[…]-3′) (SEQ ID NO: 12). […]
SDF-1 expression was induced by stimulating bursal cells with IL-1β. SDF-1 levels were measured in cell supernatants and mRNA levels were tested using real-time RT-PCR at various time points. […]
as §2

Molecule	decrease of SDF-1α protein production/expression in supernatants [1]	bursal cell migration in response to SDF-1 stimulation [2]	SDF-1α mRNA expression [3]	inflammation in the subacromial bursa ([4]; rat shoulder with experimentally induced rotator cuff injury)	maximum load in the infraspinatus bone-tendon complex compared to controls (PBS) ([4]; rat, osmotic minipump, 3, 7, 14, 28 or 42 days post injury)	binding to chemokine receptor CCR5 [5]	increase in SDF-1α protein production/expression ([6]; cytokine-treated bursal cells)	SDF-1α production, maximal stimulation ([6]; exposure to 20 ng/ml IL-1β)	increase in SDF-1α gene (mRNA) expression [7]
c1cc(CN2CCCNCCNCCCNCC2)ccc1CN1CCCNCCNCCCNCC1 [AMD3100, 1,1′-[1,4-phenylenebis(methylene)]-bis-1,4,8,11-azatetradecane]	40%	decreased	only a slight decrease	reduced inflammation	No statistically significant differences	does not bind			
C[C@@H]1C[C@H]2[C@@H]3CCC4=CC(=O)C=C[C@]4(C)[C@@]3(F)[C@@H](O)C[C@]2(C)[C@@]1(O)C(=O)CO [dexamethasone]	87%								
IL-1β							more than five-fold increase	630 pg/10^4 cells	nearly five-fold increase; also recorded: more than five-fold increase
